Test results published in ChEMBL document CHEMBL1201862, “PubChem BioAssay data set” (2004).
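Five concentrations, 48 hours, 96-well plates. GI50: concentration for 50% inhibition of growth.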 The source made the active and inactive calls. No stated cut-off is given here; in the data, active = GI50 up to about 1.1 µM and inactive = higher.

How the values were obtained:
Test in all cases: inhibition of tumour cell growth, NCI panel, 48 h
RXF 631 = tested on: RXF 631
BT-549 = tested on: BT-549
DU-145 = tested on: DU-145
Hs-578T = tested on: Hs-578T
MDA-MB-231 = tested on: MDA-MB-231
MDA-N = tested on: MDA-N
PC-3 = tested on: PC-3
T47D = tested on: T47D

Measured: GI50

COc1ccc(OC)c(NC(=O)C(=O)C(C(=O)c2ccccc2F)C2OC(=O)c3ccccc32)c1 (stereo not drawn)
inactive: RXF 631 34.7 µM

O=c1c(Cc2c(O)oc3cc(O)ccc3c2=O)c(O)oc2cc(O)ccc12
inactive: BT-549 > 100 µM | DU-145 > 100 µM | Hs-578T 94.4 µM | MDA-MB-231 > 100 µM | MDA-N > 100 µM | PC-3 > 100 µM | T47D > 100 µM

CCOC(=O)c1csc(NC(=O)CCN(CC)CC)n1
inactive: DU-145 40.2 µM | MDA-MB-231 50.5 µM | MDA-N 45.5 µM | PC-3 41 µM | T47D 54.7 µM
